Test results taken from patent US11780849B2, “Imino sulfanone inhibitors of ENPP1” (Volastra Therapeutics, Inc., priority 2020, dated 2023).
Where two headings read alike, the source gives them in different places.

How the values were obtained:
ENPP-1 ECD [1] = biological target: T1, ENPP-1 ECD (Homo sapiens (Human), UniProt P22413); experiment: Assay 1: inhibition of ENPP1 hydrolysis of 2′,3′-cGAMP (AMP-Glo, […] enzyme)
Description: Assay 1: Test compounds were plated in a 3× dilution scheme in a 384 well plate. […] AMP Detection solution (100 μL) was added to each well, the plate centrifuged and incubated for 60 min.

ENPP-1 ECD [2] = biological target: T1, ENPP-1 ECD; experiment: Assay 2: inhibition of ENPP1 hydrolysis of 2′,3′-cGAMP (AMP-Glo, […] enzyme)
Description: Assay 2: Compared to the conditions in Assay 1, this assay has a larger dynamic range and ensures the system is under steady-state conditions by reducing the enzyme concentration in the assay.
Test compounds were plated in a 3× dilution scheme in a 384 well plate. […] AMP Detection solution (10 μL) was added to each well, the plate centrifuged and incubated for 60 min.

[3] = biological target: ENPP1 on MDA-MB-231 cells (Homo sapiens (Human), UniProt P22413); experiment: Assay 3: inhibition of ENPP1 hydrolysis of AMP p-nitrophenyl ester on MDA-MB-231 cells
Description: Hydrolysis of the p-nitrophenyl ester of AMP (pNP-AMP), an isostere of ATP, is selectively catalyzed by ENPP1 in the supernatant of MDA-MB-231 cell cultures. Inhibition of the hydrolysis of pNP-AMP by MDA-MB-231 at pH 7.4 and 37° C., is a good model of physiologically relevant activity of membrane-bound ENPP1 at disease-relevant expression levels.
MDA-MB-231 cells were harvested using TypLE Express Enzyme digestion and suspended in 100 μL of Leibovitz's L-15 Medium, 20% FBS, seeding the cells in a 96-well assay plate with 4.5×10^4 cells/well. Cells were incubated at 37° C. with 1% CO2 for 24 h. In a separate dilution plate, 2× of top dose of compound was prepared in phenol-red free 1640 medium without FBS and then 1:3 serial diluted in the same medium. The cell culture medium of L15 medium was aspirated carefully and cells were washed with PBS once, and 50 μL per well of test compound or DMSO blank were added to the assay plate. Substrate mix (50 μL; 0.5 mM pNP-AMP in phenol-red free 1640 media without FBS) was added for a pNP-AMP final concentration of 0.25 mM. The system was incubated at 37° C. for 3 h.

[4] = Assay 1 (IC50), ENPP1 hydrolysis of 2′,3′-cGAMP, AMP-Glo
[5] = Assay 1 (IC50), inhibition of ENPP1 hydrolysis of 2′,3′-cGAMP, no unit in Table 18 (Table 17 legend for this assay uses nM)
[6] = IC50 in Assay 1, […] ENPP-1 ECD, 24 μM 2,3-cGAMP, pH 8.0
[7] = Assay 2 (KI), ENPP1 hydrolysis of 2′,3′-cGAMP, AMP-Glo, […] ENPP-1, 24 μM cGAMP
[8] = Assay 2 (KI), inhibition of ENPP1 hydrolysis of 2′,3′-cGAMP, no unit in Table 18 (Table 17 legend for this assay uses nM)
[9] = read-out: Assay 1 (IC50), ENPP1 hydrolysis of 2′,3′-cGAMP, AMP-Glo
[10] = read-out: Assay 1 (IC50), inhibition of ENPP1 hydrolysis of 2′,3′-cGAMP, no unit in Table 18 (Table 17 legend for this assay uses nM)
[11] = read-out: Assay 2 (KI), ENPP1 hydrolysis of 2′,3′-cGAMP, AMP-Glo, […] ENPP-1, 24 μM cGAMP
[12] = read-out: Assay 2 (KI), inhibition of ENPP1 hydrolysis of 2′,3′-cGAMP, no unit in Table 18 (Table 17 legend for this assay uses nM)
[13] = read-out: Assay 3 (KI, app), apparent KI from IC50 via Cheng/Prusoff, pNP-AMP […], MDA-MB-231 cells, pH 7.4, 37° C., 3 h, unit inferred

T1 sequence (P22413 98-925): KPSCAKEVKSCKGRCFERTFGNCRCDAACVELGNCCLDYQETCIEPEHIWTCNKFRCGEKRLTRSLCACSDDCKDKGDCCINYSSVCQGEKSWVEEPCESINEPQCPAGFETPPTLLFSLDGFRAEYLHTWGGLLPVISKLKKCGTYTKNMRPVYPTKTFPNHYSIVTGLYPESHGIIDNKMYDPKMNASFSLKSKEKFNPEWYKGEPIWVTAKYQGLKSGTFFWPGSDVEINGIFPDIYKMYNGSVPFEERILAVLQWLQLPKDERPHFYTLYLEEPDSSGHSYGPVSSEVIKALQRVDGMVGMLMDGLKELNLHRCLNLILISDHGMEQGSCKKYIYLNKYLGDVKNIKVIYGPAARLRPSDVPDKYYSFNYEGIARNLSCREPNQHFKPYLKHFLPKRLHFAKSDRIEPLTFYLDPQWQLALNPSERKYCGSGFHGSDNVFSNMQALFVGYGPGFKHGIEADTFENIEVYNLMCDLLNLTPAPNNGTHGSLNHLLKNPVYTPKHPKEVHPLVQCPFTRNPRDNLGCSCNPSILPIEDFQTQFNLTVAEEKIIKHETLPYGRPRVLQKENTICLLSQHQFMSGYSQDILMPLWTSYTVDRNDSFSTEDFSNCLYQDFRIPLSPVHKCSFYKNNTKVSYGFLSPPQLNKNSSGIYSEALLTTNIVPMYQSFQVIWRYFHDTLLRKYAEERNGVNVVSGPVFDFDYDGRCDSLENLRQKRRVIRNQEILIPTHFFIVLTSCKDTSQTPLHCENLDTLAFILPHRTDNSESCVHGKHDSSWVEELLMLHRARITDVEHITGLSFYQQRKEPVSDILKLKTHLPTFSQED
ENPP1 on MDA-MB-231 cells, sequence (P22413 whole entry): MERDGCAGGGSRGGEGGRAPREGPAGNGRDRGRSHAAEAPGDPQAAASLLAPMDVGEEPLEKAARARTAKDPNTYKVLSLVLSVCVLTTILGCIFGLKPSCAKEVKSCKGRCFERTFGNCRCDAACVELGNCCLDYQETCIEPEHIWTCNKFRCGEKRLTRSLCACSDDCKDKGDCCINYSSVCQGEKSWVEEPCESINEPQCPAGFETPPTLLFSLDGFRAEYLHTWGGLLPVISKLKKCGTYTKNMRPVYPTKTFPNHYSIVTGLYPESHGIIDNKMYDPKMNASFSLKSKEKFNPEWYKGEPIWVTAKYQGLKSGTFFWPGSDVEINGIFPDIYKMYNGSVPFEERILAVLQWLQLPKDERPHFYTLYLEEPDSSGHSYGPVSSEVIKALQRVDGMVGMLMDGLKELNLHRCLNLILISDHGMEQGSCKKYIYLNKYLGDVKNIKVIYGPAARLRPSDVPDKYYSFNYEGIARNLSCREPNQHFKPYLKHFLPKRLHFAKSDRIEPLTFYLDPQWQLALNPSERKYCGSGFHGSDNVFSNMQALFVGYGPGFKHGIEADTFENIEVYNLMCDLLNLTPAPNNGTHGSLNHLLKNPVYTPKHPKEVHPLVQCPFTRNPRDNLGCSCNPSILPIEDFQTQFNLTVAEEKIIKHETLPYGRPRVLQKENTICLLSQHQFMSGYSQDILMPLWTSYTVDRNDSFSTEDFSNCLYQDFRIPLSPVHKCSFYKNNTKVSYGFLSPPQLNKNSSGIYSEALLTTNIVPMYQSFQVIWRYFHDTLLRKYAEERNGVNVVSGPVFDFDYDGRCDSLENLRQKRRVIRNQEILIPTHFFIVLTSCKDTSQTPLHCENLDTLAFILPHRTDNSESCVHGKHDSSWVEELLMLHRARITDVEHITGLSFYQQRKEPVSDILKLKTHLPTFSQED

## COc1cc2nccc(Oc3ccc(S(C)(=N)=O)cc3)c2cc1OC (centres unmarked) [Compound 1, (4-((6,7-dimethoxyquinolin-4-yl)oxy)phenyl)(imino)(methyl)-λ^6-sulfanone]
ENPP-1 ECD [1]
  Ki: 5.1 nM
ENPP-1 ECD [1]; [4]
  IC50: 10 to 1000 nM
ENPP-1 ECD [1]; [5]
  IC50: 17 nM
ENPP-1 ECD [1]; [6]
  IC50: 17 nM
ENPP-1 ECD [2]; [7]
  Ki: 3 to 300 nM
ENPP-1 ECD [2]; [8]
  Ki: 3.5 nM
[3]
  Ki: 61 nM

## COc1cc2nccc(Oc3ccc([S@@](C)(=N)=O)cc3)c2cc1OC [Compound 1S, (S)-(4-((6,7-dimethoxyquinolin-4-yl)oxy)phenyl)(imino)(methyl)-λ^6-sulfanone]
ENPP-1 ECD [1]; [4]
  IC50: 10 to 1000 nM
ENPP-1 ECD [1]; [5]
  IC50: 13 nM
ENPP-1 ECD [2]; [7]
  Ki: < 3 nM
ENPP-1 ECD [2]; [8]
  Ki: 0.87 nM
[3]
  Ki: 45 nM

## COc1cc2ncnc(N3CCC(CCS(C)(=N)=O)CC3)c2cc1OC (centres unmarked) [Compound 8, (2-(1-(6,7-dimethoxyquinazolin-4-yl)piperidin-4-yl)ethyl)(imino)(methyl)-λ^6-sulfanone]
ENPP-1 ECD [1]; [5]
  IC50: 4.1 nM
ENPP-1 ECD [1]; [6]
  IC50: 6.9 nM
ENPP-1 ECD [1]; [9]
  IC50: < 10 nM
ENPP-1 ECD [2]; [7]
  Ki: < 3 nM
ENPP-1 ECD [2]; [8]
  Ki: 0.69 nM
[3]
  Ki: 27 nM

## COc1ccc2c(Oc3ccc(S(C)(=N)=O)cc3F)ccnc2c1 (centres unmarked) [Compound 12, (3-fluoro-4-((7-methoxyquinolin-4-yl)oxy)phenyl)(imino)(methyl)-λ^6-sulfanone]
ENPP-1 ECD [1]; [4]
  IC50: 10 to 1000 nM
ENPP-1 ECD [1]; [5]
  IC50: 30 nM
ENPP-1 ECD [2]; [7]
  Ki: 3 to 300 nM
ENPP-1 ECD [2]; [8]
  Ki: 8.6 nM
[3]
  Ki: 190 nM

## COc1cc2ncnc(-c3ccc4c(c3)CN(S(C)(=N)=O)CC4)c2cc1OC (centres unmarked) [Compound 37, 6,7-dimethoxy-4-(2-(S-methylsulfonimidoyl)-1,2,3,4-tetrahydroisoquinolin-7-yl)quinazoline]
ENPP-1 ECD [1]; [5]
  IC50: 2.9 nM
ENPP-1 ECD [1]; [9]
  IC50: < 10 nM
ENPP-1 ECD [2]; [7]
  Ki: < 3 nM
ENPP-1 ECD [2]; [8]
  Ki: 0.41 nM
[3]
  Ki: 28 nM

## COc1cc2ncc(C#N)c(N3CCC(CCS(C)(=N)=O)CC3)c2cc1F (centres unmarked) [Compound 43, 6-fluoro-7-methoxy-4-(4-(2-(S-methylsulfonimidoyl)ethyl)piperidin-1-yl)quinoline-3-carbonitrile]
ENPP-1 ECD [1]; [5]
  IC50: 3.9 nM
ENPP-1 ECD [1]; [9]
  IC50: < 10 nM
ENPP-1 ECD [2]; [7]
  Ki: < 3 nM
ENPP-1 ECD [2]; [8]
  Ki: 0.49 nM
[3]
  Ki: 29 nM

## COc1cc2ncc(C#N)c(Oc3ccc(S(C)(=N)=O)cc3)c2cc1F (centres unmarked) [Compound 44, 6-fluoro-7-methoxy-4-(4-(S-methylsulfonimidoyl)phenoxy)quinoline-3-carbonitrile]
ENPP-1 ECD [1]; [4]
  IC50: 10 to 1000 nM
ENPP-1 ECD [1]; [5]
  IC50: 15 nM
ENPP-1 ECD [2]; [7]
  Ki: < 3 nM
ENPP-1 ECD [2]; [8]
  Ki: 1.6 nM
[3]
  Ki: 110 nM

## COc1cc2ncc(C#N)c(Oc3ccc([S@@](C)(=N)=O)cc3)c2cc1F [Compound 44a]
ENPP-1 ECD [1]; [9]
  IC50: 10 to 1000 nM
ENPP-1 ECD [1]; [10]
  IC50: 11 nM
ENPP-1 ECD [2]; [11]
  Ki: < 3 nM
ENPP-1 ECD [2]; [12]
  Ki: 1 nM
[3]; [13]
  Ki: 110 nM

## COc1ccc2c(-c3ccc4c(c3)CN(S(C)(=N)=O)CC4)ccnc2c1 (centres unmarked) [Compound 52, 7-methoxy-4-(2-(S-methylsulfonimidoyl)-1,2,3,4-tetrahydroisoquinolin-7-yl)quinoline]
ENPP-1 ECD [1]; [4]
  IC50: 10 to 1000 nM
ENPP-1 ECD [1]; [5]
  IC50: 35 nM
ENPP-1 ECD [2]; [7]
  Ki: 3 to 300 nM
ENPP-1 ECD [2]; [8]
  Ki: 6.3 nM
[3]
  Ki: 280 nM

## COc1ccc2c(N3CCC4(CC3)CN(S(C)(=N)=O)C4)ccnc2c1 (centres unmarked) [Compound 53, 7-methoxy-4-(2-(S-methylsulfonimidoyl)-2,7-diazaspiro[3.5]nonan-7-yl)quinoline]
ENPP-1 ECD [1]; [4]
  IC50: 10 to 1000 nM
ENPP-1 ECD [1]; [5]
  IC50: 44 nM
ENPP-1 ECD [2]; [7]
  Ki: 3 to 300 nM
ENPP-1 ECD [2]; [8]
  Ki: 4.6 nM
[3]
  Ki: 160 nM

## COc1cc2ncnc(N3CCC4(CC3)CCN(S(C)(=N)=O)C4)c2cc1OC (centres unmarked) [Compound 54, [8-(6,7-dimethoxyquinazolin-4-yl)-2,8-diazaspiro[4.5]decan-2-yl](imino)methyl-λ^6-sulfanone]
ENPP-1 ECD [1]; [5]
  IC50: 0.71 nM
ENPP-1 ECD [2]; [7]
  Ki: < 3 nM
ENPP-1 ECD [2]; [8]
  Ki: 0.014 nM
[3]
  Ki: 0.88 nM

## COc1cc2ncnc(N3CCC4(CC3)CCN([S@@](C)(=N)=O)C4)c2cc1OC [Compound 54a]
ENPP-1 ECD [1]; [9]
  IC50: < 10 nM
ENPP-1 ECD [1]; [10]
  IC50: 0.34 nM
ENPP-1 ECD [2]; [11]
  Ki: < 3 nM
ENPP-1 ECD [2]; [12]
  Ki: 0.0075 nM
[3]; [13]
  Ki: 0.32 nM

## COc1cc2ncnc(N3CCC4(CC3)CCN([S@](C)(=N)=O)C4)c2cc1OC [Compound 54b]
ENPP-1 ECD [1]; [9]
  IC50: < 10 nM
ENPP-1 ECD [1]; [10]
  IC50: 7.6 nM
ENPP-1 ECD [2]; [11]
  Ki: < 3 nM
ENPP-1 ECD [2]; [12]
  Ki: 1.3 nM
[3]; [13]
  Ki: 130 nM

## COc1ccc2c(N3CCC4(CC3)CCN(S(C)(=N)=O)C4)ccnc2c1 (centres unmarked) [Compound 55, 8-(7-methoxyquinolin-4-yl)-2-(S-methylsulfonimidoyl)-2,8-diazaspiro[4.5]decane]
ENPP-1 ECD [1]; [5]
  IC50: 2 nM
ENPP-1 ECD [1]; [9]
  IC50: < 10 nM
ENPP-1 ECD [2]; [7]
  Ki: < 3 nM
ENPP-1 ECD [2]; [8]
  Ki: 0.14 nM
[3]
  Ki: 25 nM

## COc1ccc2c(N3CCC4(CC3)CCN([S@](C)(=N)=O)C4)ccnc2c1 [Compound 55a]
ENPP-1 ECD [1]; [9]
  IC50: < 10 nM
ENPP-1 ECD [1]; [10]
  IC50: 0.76 nM
ENPP-1 ECD [2]; [11]
  Ki: < 3 nM
ENPP-1 ECD [2]; [12]
  Ki: 0.09 nM
[3]; [13]
  Ki: 8.7 nM

## COc1cccc2c(N3CCC(CCS(C)(=N)=O)CC3)c(C#N)cnc12 (centres unmarked) [Compound 57, 8-methoxy-4-(4-(2-(S-methylsulfonimidoyl)ethyl)piperidin-1-yl)quinoline-3-carbonitrile]
ENPP-1 ECD [1]; [4]
  IC50: 10 to 1000 nM
ENPP-1 ECD [1]; [5]
  IC50: 31 nM
ENPP-1 ECD [2]; [7]
  Ki: 3 to 300 nM
ENPP-1 ECD [2]; [8]
  Ki: 5.3 nM
[3]
  Ki: 120 nM

## COc1cccc2c(N3CCC4(CC3)CN(S(C)(=N)=O)C4)ncnc12 (centres unmarked) [Compound 236, imino[7-(8-methoxyquinazolin-4-yl)-2,7-diazaspiro[3.5]nonan-2-yl]methyl-λ^6-sulfanone]
ENPP-1 ECD [2]; [8]
  Ki: 86 nM
[3]
  Ki: > 580 nM

## COc1cc2ncnc(N3CC4(CC(CS(C)(=N)=O)C4)C3)c2cc1OC (centres unmarked) [Compound 237]
ENPP-1 ECD [2]; [8]
  Ki: 0.028 nM
[3]
  Ki: 1.2 nM

## COc1cc2ncnc(N3CC4(CC(C[S@](C)(=N)=O)C4)C3)c2cc1OC [Compound 237b]
ENPP-1 ECD [2]; [12]
  Ki: 0.005 nM
[3]; [13]
  Ki: 0.17 nM

## COc1cccc2c(N3CC[C@H](C[S@@](C)(=N)=O)C3)ncnc12 [Compound 238a]
ENPP-1 ECD [2]; [12]
  Ki: 66 nM
[3]; [13]
  Ki: 260 nM

## COc1cccc2c(N3CC[C@@H](CS(C)(=N)=O)C3)ncnc12 (stereo partly drawn) [Compound 239, imino({[(3R)-1-(8-methoxyquinazolin-4-yl)pyrrolidin-3-yl]methyl})methyl-λ^6-sulfanone]
ENPP-1 ECD [2]; [8]
  Ki: 0.81 nM
[3]
  Ki: 15 nM

## COc1cccc2c(N3CC[C@@H](C[S@](C)(=N)=O)C3)ncnc12 [Compound 239a]
ENPP-1 ECD [2]; [12]
  Ki: 0.43 nM
[3]; [13]
  Ki: 5.4 nM

## COc1cc2ncnc(N3CCC4(CC3)CCN(S(=N)(=O)CC(C)(C)O)C4)c2cc1OC (centres unmarked) [Compound 240, [8-(6,7-dimethoxyquinazolin-4-yl)-2,8-diazaspiro[4.5]decan-2-yl](2-hydroxy-2-methylpropyl)imino-λ^6-sulfanone]
ENPP-1 ECD [2]; [8]
  Ki: 0.069 nM
[3]
  Ki: 5.4 nM

## COc1cc2ncnc(N3CCC4(CC3)CCN(S(C)(=N)=O)C4)c2cc1OCF (centres unmarked) [Compound 241, {8-[6-(fluoromethoxy)-7-methoxyquinazolin-4-yl]-2,8-diazaspiro[4.5]decan-2-yl}(imino)methyl-λ^6-sulfanone]
ENPP-1 ECD [2]; [8]
  Ki: 0.031 nM
[3]
  Ki: 1.2 nM

## COc1cc2nccc(OCc3cccc(S(=N)(=O)C4CC4)c3)c2cc1F (centres unmarked) [Compound 244, [cyclopropyl(3-{[(6-fluoro-7-methoxyquinolin-4-yl)oxy]methyl}phenyl)imino-λ^6-sulfanyl]one]
ENPP-1 ECD [2]; [8]
  Ki: 0.018 nM
[3]
  Ki: 0.55 nM

## COc1ccc2c(O[C@@H](C)c3cccc(S(C)(=N)=O)c3)ccnc2c1 (stereo partly drawn) [Compound 245, imino({3-[(1S)-1-[(7-methoxyquinolin-4-yl)oxy]ethyl]phenyl})methyl-λ^6-sulfanone]
ENPP-1 ECD [2]; [8]
  Ki: 0.23 nM
[3]
  Ki: 5.7 nM

## COc1cc2ncnc(-c3ccc4c(c3)CN(S(N)(=O)=O)CC4)c2cc1OC [reference compound]
ENPP-1 ECD [1]; [6]
  IC50: 11 nM
[3]
  Ki: 23 nM
